Measurements: US6221914A, “Sulfonamide bridging compounds that inhibit tryptase activity” (Array Biopharma Inc., priority 1998, dated 2001)

Key:
Assay type in all cases: biochemical
[1] = biological target: T1, Bovine pancreatic Trypsin (Bos taurus, UniProt P00760); assay: Ki determination, bovine pancreatic trypsin (N-a-Benzoyl-L-Arg-pNA); details: 50 mM Tris-HCl, pH 8.2, 20 mM CaCl2; read-out: Experimentally Determined Ki, Trypsin
T1 construct: from tissue; host or cells: bovine pancreas
T1 sequence (P00760 24-246): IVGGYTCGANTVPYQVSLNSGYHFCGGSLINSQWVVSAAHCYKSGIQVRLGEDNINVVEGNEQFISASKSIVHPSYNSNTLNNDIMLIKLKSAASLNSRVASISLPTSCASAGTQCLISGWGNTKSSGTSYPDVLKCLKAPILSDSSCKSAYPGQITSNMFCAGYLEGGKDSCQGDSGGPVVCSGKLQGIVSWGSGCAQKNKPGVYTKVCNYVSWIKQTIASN
Protocol: (§1) Protease inhibition was assayed according to published procedures with minor modifications using various proteases and specific chromogenic peptide p-nitroanilide substrates. Assays were performed in Costar ultra-low cluster 96-well microtiter plate (Costar Corning Corp., Cambridge Mass.). Each protease was incubated with various concentrations of the test compound for 15 min. at 37° C. or as otherwise indicated, in specific assay buffer, and the residual activity was then measured by addition of the substrate. p-Nitroaniline produced by the proteolysis was determined by measuring the change in absorbance at 405 nm on a SpectraMAX 340 plate reader (Molecular devices, Sunnyvale, Calif.).
(§2) 1. The inhibition constant, Ki is calculated from individual data points using the equation for a tight-binding inhibitor (See Beith, "Proteinase Inhibitors-Proceedings of 2nd Int. Res. Conference", Fritz, et al. eds, New York, p.4463-4469 (1974)):
(§3) vi /vo [((Ki '+[I]+[E]o)^2 -4 [I]o
(§4) [E]o)^1/2 (Ki '+[I]o -[E]o)]/2[E]o
(§5) where Ki ' is apparent inhibition constant; vi and vo are the inhibited and uninhibited rates, respectively; [I]o and [E]o are the total concentrations of inhibitor and enzyme, respectively.
(§6) [note: [E]o is determined by active site titration of enzyme]
(§7) The Ki values are obtained by correcting Ki ' values for the effect of substrate concentration according to: [formula]
(§8) 2. Other inhibition data (Ki >>[E]o), the Ki is calculated from using the equations for a competitive inhibitor: [formula]
Bovine pancreatic Trypsin (TPCK-treated) activity was determined by using N-a-Benzoyl-L-Arg-pNA in 50 mM Tris-HCl, pH 8.2, 20 mM CaCl2 (See Somorin, et al., J. Biochem. 85, 157-162 (1979)).
(§9) The inhibition constant (Ki) of the test compounds against each proteolytic enzyme was determined according to Zitnik et al., Biochem. Biophys. Res. Commun. 232, 687-697 (1997)).

[2] = biological target: T2, Human plasma thrombin (Homo sapiens, UniProt P00734); assay: Ki determination, human plasma thrombin (H-D-Phe-Pip-Arg-pNA); details: 50 mM Tris-HCl, pH 8.3, 100 mM NaCl, 1% BSA; read-out: Experimentally Determined Ki, Thrombin
T2 construct: from tissue; host or cells: human plasma
Protocol: as §1, §2, §3, §4, §5, §6, §7, §8
Human plasma thrombin activity was determined by using H-D-Phe-Pip-Arg-pNA in 50 mM Tris-HCl, pH 8.3, 100 mM NaCl, 1% BSA (See Lottenberg, et al. Meth. Enzymol. 80, 341-361 (1981)).
as §9

[3] = biological target: T3, Human plasma factor Xa (Homo sapiens, UniProt P00742); assay: Ki determination, human plasma factor Xa (N-Benzoyl-Ile-Glu-Gly-Arg-pNA); details: 50 mM Tris-HCl, pH 7.8, 200 mM NaCl, 0.05% BSA; read-out: Experimentally Determined Ki, Factor Xa
T3 construct: from tissue; host or cells: human plasma
T3 sequence (P00742 235-488 limits assumed): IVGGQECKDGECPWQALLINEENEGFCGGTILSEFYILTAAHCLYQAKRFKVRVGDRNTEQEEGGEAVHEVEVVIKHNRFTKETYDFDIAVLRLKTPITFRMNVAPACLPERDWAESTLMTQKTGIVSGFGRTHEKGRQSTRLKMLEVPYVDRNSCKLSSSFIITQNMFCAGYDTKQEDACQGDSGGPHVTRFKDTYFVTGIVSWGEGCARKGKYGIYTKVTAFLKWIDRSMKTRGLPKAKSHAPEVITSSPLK
T3 sequence (P00742 41-179 partner limits assumed): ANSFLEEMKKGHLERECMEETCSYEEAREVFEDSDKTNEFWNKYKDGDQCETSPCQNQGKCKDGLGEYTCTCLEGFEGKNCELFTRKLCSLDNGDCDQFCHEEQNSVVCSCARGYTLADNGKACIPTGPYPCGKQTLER
Protocol: as §1, §2, §3, §4, §5, §6, §7, §8
Human plasma factor Xa activity was determined by using N-Benzoyl-Ile-Glu-Gly-Arg-pNA in 50 mM Tris-HCl, pH 7.8, 200 mM NaCl, 0.05% BSA (See Lottenberg, et al. Meth. Enzymol. 80, 341-361 (1981)).
as §9

[4] = biological target: r-tissue kallikrein (Homo sapiens, UniProt P06870); assay: Ki determination, r-tissue kallikrein (DL-Val-Leu-Arg-pNA); details: 50 mM Tris-HCl, pH 7.8, 200 mM NaCl, 0.05% BSA; read-out: Experimentally Determined Ki, Tissue Kallikrein
Sequence of r-tissue kallikrein (P06870 25-262): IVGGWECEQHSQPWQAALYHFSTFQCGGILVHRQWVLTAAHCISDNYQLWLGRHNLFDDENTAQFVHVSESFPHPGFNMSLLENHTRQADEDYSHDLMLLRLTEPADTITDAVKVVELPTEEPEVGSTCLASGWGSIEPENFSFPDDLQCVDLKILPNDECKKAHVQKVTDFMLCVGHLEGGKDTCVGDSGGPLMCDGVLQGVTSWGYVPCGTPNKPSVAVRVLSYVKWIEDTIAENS
Protocol: as §1, §2, §3, §4, §5, §6, §7, §8
(§10) I. Human Plasma and r-Tissue Kallikrein
(§11) Human plasma and r-tissue kallikrein activity were determined in 50 mM Tris-HCl, pH 7.8, 200 mM NaCl, 0.05% BSA by using H-D-Prolyl-Phe-Arg-pNA and DL-Val-Leu-Arg-pNA, respectively (See Lottenberg, et al., Meth. Enzymol. 80, 341-361 (1981)).
as §9

[5] = biological target: T4, Human plasma kallikrein (Homo sapiens, UniProt P03952); assay: Ki determination, human plasma kallikrein (H-D-Prolyl-Phe-Arg-pNA); details: 50 mM Tris-HCl, pH 7.8, 200 mM NaCl, 0.05% BSA; read-out: Experimentally Determined Ki, Plasma Kallikrein
T4 construct: from tissue; host or cells: human plasma
T4 sequence (P03952 391-638 limits assumed): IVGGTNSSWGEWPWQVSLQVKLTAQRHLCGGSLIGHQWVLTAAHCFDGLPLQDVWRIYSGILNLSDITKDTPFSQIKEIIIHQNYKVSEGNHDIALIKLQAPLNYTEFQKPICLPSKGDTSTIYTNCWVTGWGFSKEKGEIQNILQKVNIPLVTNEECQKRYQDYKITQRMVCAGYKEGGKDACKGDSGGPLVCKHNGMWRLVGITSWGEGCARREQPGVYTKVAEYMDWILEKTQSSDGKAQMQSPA
T4 sequence (P03952 20-390 partner limits assumed): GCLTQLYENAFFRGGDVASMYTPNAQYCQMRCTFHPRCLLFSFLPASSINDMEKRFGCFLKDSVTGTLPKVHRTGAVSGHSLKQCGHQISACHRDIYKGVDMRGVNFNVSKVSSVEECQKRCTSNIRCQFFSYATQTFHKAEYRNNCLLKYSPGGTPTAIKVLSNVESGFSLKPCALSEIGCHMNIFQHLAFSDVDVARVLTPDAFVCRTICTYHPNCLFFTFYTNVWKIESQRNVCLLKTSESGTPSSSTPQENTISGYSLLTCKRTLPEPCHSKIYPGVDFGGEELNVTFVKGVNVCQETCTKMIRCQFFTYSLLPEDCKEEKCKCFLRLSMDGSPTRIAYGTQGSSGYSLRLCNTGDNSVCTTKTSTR
Protocol: as §1, §2, §3, §4, §5, §6, §7, §8, §10, §11, §9

[6] = biological target: T5, Human plasma plasmin (Homo sapiens, UniProt P00747); assay: Ki determination, human plasma plasmin (Tosyl-Gly-Pro-Lys-pNA); details: 100 mM Tris-HCl, pH 7.4, 100 mM NaCl, 0.05% Triton X-100; read-out: Experimentally Determined Ki, Plasmin
T5 construct: from tissue; host or cells: human plasma
T5 sequence (P00747 581-810 limits assumed): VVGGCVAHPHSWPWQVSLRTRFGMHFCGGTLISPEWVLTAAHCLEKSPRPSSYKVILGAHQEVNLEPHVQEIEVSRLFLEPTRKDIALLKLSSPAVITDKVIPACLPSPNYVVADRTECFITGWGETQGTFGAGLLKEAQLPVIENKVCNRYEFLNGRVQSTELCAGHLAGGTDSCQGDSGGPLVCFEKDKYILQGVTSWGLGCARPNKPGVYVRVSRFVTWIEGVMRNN
T5 sequence (P00747 97-580 partner limits assumed): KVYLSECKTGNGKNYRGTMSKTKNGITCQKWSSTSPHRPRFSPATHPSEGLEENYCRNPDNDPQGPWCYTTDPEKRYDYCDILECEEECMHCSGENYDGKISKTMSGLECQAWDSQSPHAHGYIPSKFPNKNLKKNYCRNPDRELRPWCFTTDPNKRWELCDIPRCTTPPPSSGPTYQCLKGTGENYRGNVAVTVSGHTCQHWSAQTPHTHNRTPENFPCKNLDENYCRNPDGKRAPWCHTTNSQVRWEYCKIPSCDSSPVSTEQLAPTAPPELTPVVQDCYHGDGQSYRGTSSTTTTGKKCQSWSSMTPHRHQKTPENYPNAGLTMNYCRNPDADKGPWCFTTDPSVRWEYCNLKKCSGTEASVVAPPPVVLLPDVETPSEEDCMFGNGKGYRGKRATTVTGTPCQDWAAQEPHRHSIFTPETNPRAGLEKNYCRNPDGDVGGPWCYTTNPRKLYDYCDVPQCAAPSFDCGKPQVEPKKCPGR
Protocol: as §1, §2, §3, §4, §5, §6, §7, §8
Human plasma plasmin activity was determined by using Tosyl-Gly-Pro-Lys-pNAin 100 mM Tris-HCl, pH 7.4, 100 mM NaCl, 0.05% Triton X-100 (See Lottenberg, et al., Meth. Enzymol. 80, 341-361 (1981)).
as §9

[7] = biological target: T6, Human Neutrophil Cathepsin G (Homo sapiens, UniProt P08311); assay: Ki determination, human neutrophil cathepsin G (N-Suc-Ala-Ala-Pro-Phe-pNA); details: 625 mM Tris-HCl, pH 7.5, 2.5 mM MgCl2, 0.125% Brij 35; read-out: Experimentally Determined Ki, Cathepsin G
T6 construct: from tissue; host or cells: human neutrophils
T6 sequence (P08311 21-255): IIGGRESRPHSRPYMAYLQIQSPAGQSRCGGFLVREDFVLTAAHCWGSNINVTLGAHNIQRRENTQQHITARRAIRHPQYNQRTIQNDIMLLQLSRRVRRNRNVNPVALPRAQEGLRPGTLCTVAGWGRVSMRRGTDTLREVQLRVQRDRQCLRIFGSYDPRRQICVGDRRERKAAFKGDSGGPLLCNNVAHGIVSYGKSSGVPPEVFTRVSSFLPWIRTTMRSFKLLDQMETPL
Protocol: as §1, §2, §3, §4, §5, §6, §7, §8
Human Neutrophil Cathepsin G activity was determined by using N-Suc-Ala-Ala-Pro-Phe-pNA in 625 mM Tris-HCl, pH 7.5, 2.5 mM MgCl2, 0.125% Brij 35 (See Groutas et al., Arch. Biochem. Biophys. 294, 144-146 (1992)).
as §9

[8] = biological target: T7, Bovine Pancreatic Chymotrypsin (Bos taurus, UniProt P00766); assay: Ki determination, bovine pancreatic chymotrypsin (N-Suc-Ala-Ala-Pro-Phe-pNA); details: 100 mM Tris-HCl, pH 7.8, 10 mM CaCl2; read-out: Experimentally Determined Ki, Chymotrypsin
T7 construct: from tissue; host or cells: bovine pancreas
Protocol: as §1, §2, §3, §4, §5, §6, §7, §8
Bovine Pancreatic Chymotrypsin activity was determined by using N-Suc-Ala-Ala-Pro-Phe-pNA in 100 mM Tris-HCl, pH 7.8, 10 mM CaCl2 (See Delmar, et al., J. Biochem. 85, 157-162 (1979)).
as §9

Compound	Ki [1]	Ki [2]	Ki [3]	Ki [4]	Ki [5]	Ki [6]	Ki [7]	Ki [8]
N=C(N)c1cccc(C(=O)NCc2ccc(OCCCCCOc3ccc(CNC(=O)c4cccc(C(=N)N)c4)cc3)cc2)c1 [Example 55, 1,5-Bis-{4-[(3-carbamimidoyl-benzenecarbonylamino)-methyl]-phenoxy}-pentane]	0.9 µM	> 100 µM	1.8 µM	> 100 µM	11 µM	7.6 µM	> 100 µM	> 100 µM
N=C(N)c1ccc(C(=O)NCc2ccc(OCCCCCCCOc3ccc(CNC(=O)c4ccc(C(=N)N)cc4)cc3)cc2)cc1 [Example 58, 1,7-Bis-{4-[(4-carbamimidoyl-benzenecarbonylamino)-methyl]-phenoxy}-heptane]	1.5 µM	> 100 µM	20 µM	> 100 µM	46 µM	3.8 µM	> 100 µM	> 100 µM
N=C(N)c1cccc(C(=O)NCc2ccc(OCCCCCCCOc3ccc(CNC(=O)c4cccc(C(=N)N)c4)cc3)cc2)c1 [Example 59, 1,7-Bis-{4-[(3-carbamimidoyl-benzenecarbonylamino)-methyl]-phenoxy}-heptane]	1.1 µM	> 100 µM	8.3 µM	> 100 µM	72 µM	8.7 µM	> 100 µM	> 100 µM
N=C(N)c1ccc(C(=O)NCc2ccc(OCCCCOc3ccc(CNC(=O)c4ccc(C(=N)N)cc4)cc3)cc2)cc1 [Example 60, 1,4-Bis-{4-[(4-carbamimidoyl-benzenecarbonylamino)-methyl]-phenoxy}-butane]	1.5 µM	> 100 µM	17.7 µM	> 100 µM	6.3 µM	12 µM	> 100 µM	> 100 µM
N=C(N)c1cccc(C(=O)NCc2ccc(OCCCCOc3ccc(CNC(=O)c4cccc(C(=N)N)c4)cc3)cc2)c1 [Example 61, 1,4-Bis-{4-[(3-carbamimidoyl-benzenecarbonylamino)-methyl]-phenoxy}-butane]	1.2 µM	> 100 µM	1 µM	> 100 µM	7.7 µM	6 µM	> 100 µM	> 100 µM
N=C(N)c1ccc(C(=O)NCc2ccc(OCCCOc3ccc(CNC(=O)c4ccc(C(=N)N)cc4)cc3)cc2)cc1 [Example 62, 1,3-Bis-{4-[(4-carbamimidoyl-benzoylamino)-methyl]-phenoxy}-propane]	2.4 µM	> 100 µM	35 µM	> 100 µM	2.9 µM	11.6 µM	> 100 µM	> 100 µM
N=C(N)c1ccc(C(=O)NCc2ccc(OCCOc3ccc(CNC(=O)c4ccc(C(=N)N)cc4)cc3)cc2)cc1 [Example 64, 1,2-Bis-{4-[(4-carbamimidoyl-benzoylamino)-methyl]-phenoxy}-ethane]	1.4 µM	> 100 µM	35.3 µM	> 100 µM	7.3 µM	6.5 µM	> 100 µM	> 100 µM
N=C(N)c1cccc(C(=O)NCc2ccc(OCCOc3ccc(CNC(=O)c4cccc(C(=N)N)c4)cc3)cc2)c1 [Example 65, 1,2-Bis-{4-[(3-carbamimidoyl-benzoylamino)-methyl]-phenoxy}-ethane]	2.2 µM	> 100 µM	2.6 µM	> 100 µM	24 µM	46 µM	> 100 µM	> 100 µM

Now from value to compound:

Ki [1]	Ki [2]	Ki [3]	Ki [4]	Ki [5]	Ki [6]	Ki [7]	Ki [8]	Compound
3.2 µM	> 100 µM	20 µM	> 100 µM	4.3 µM	10 µM	> 100 µM	> 100 µM	CN(Cc1ccc(OCCCOc2ccc(CN(C)S(=O)(=O)c3cccc(C(=N)N)c3)cc2)cc1)S(=O)(=O)c1cccc(C(=N)N)c1 [Example 68, 1,3-Bis-{4-[(3-carbamimidoyl-benzenesulfonyl-[N-methyl]-amino)-methyl]-phenoxy}-propane]
0.83 µM	21 µM	> 100 µM	5 µM	2.8 µM	> 100 µM	> 100 µM	> 100 µM	N=C(N)c1ccc(C(=O)NCc2cccc(OCCCCCOc3cccc(CNC(=O)c4ccc(C(=N)N)cc4)c3)c2)cc1 [Example 76, 1,5-Bis-{3-[(4-carbamimidoyl-benzenecarbonylamino)-methyl]-phenoxy}-pentane]
1.4 µM	> 100 µM	1.9 µM	32 µM	2.9 µM	4.3 µM	> 100 µM	> 100 µM	N=C(N)c1cccc(C(=O)NCc2cccc(OCCCCCOc3cccc(CNC(=O)c4cccc(C(=N)N)c4)c3)c2)c1 [Example 77, 1,5-Bis-{3-[(3-carbamimidoyl-benzenecarbonylamino)-methyl]-phenoxy}-pentane]
1.1 µM	> 100 µM	2.2 µM	> 100 µM	1.7 µM	5.2 µM	> 100 µM	> 100 µM	N=C(N)c1ccc(C(=O)NCc2ccc(OCCCOc3ccc(CNC(=O)c4cccc(C(=N)N)c4)cc3)cc2)cc1 [Example 85, 4-Carbamimidoyl-N-[4-(3-{4-[(3-carbamimidoyl-benzoylamino)-methyl]-phenoxy}-propoxy)-benzyl]-benzamide]
